Source: patent US7323461B2, “Use of methylene blue and related compounds to prevent or reverse an exaggerated hemodynamic reaction” (Montreal Heart Institute, priority 2002, dated 2008)
“Also recorded” adds a separate entry of the source.

What was measured:
[1] = Hemodynamic effects of methylene blue on hypotensive dogs (same procedure as for pigs); assay type: in vivo, dog; settings: same procedure as pigs: sildenafil citrate, nitroglycerin bolus
Description: (§1) Pigs weighing between 20 and 25 kg were anesthetized in accordance with the standard procedure of the Canadian Council on Animal Care Regulations. After baseline hemodynamic measurements, the left circumflex (LCX) artery was occluded using a catheter balloon so as to mimic the condition of patients with cardiovascular disease. As soon as the animal was stable, a bolus injection of nitroglycerin (0.2 mg) was given intravenously in order to observe the effect of nitroglycerin alone on the animal. The animal's blood pressure was allowed to return to normal, and the animal was given 100 mg of sildenafil citrate via an esophagus tube. One hour after the administration of sildenafil citrate, a bolus injection of 0.2 mg of nitroglycerin was given to the animal in order to observe the combined effect of […] and nitroglycerin on the animal. When the animal's blood pressure returned to normal, a second 0.2 mg bolus injection of nitroglycerin was given along with a bolus of MB (3 mg/kg). Blood pressure and heart rate were monitored throughout the procedure.
The procedure used was the same as that for pigs. (See EXAMPLE 1, above.) The experiments were conducted on dogs to see what effect the combination of a phosphodiesterase inhibitor and an organic nitrate would have on an animal with a greater number of collaterals than the pig. […]

[2] = Hemodynamic effects of methylene blue on hypotensive pigs (LCX artery occluded, sildenafil citrate plus nitroglycerin); assay type: in vivo, pig; settings: LCX balloon occlusion, 100 mg sildenafil citrate via esophagus tube, 0.2 mg nitroglycerin i.v. bolus along with MB bolus 3 mg/kg
Description: as §1

[3] = humans, dosages above 2 mg/kg; cited from earlier work

## CN(C)c1ccc2nc3ccc(N(C)C)cc3[s+]c2c1.[Cl-] [MB, 3,7-bis(dimethylamino)phenothiazin-5-ium chloride]
[1]
  changes in time in systolic blood pressure after nitroglycerin injection with MB: A drop in blood pressure is less pronounced, and there is more rapid recovery time, than without MB; also recorded: MB effectively increased the blood pressure in the animals tested
[2]
  changes in time in systolic blood pressure after nitroglycerin injection with MB: Pressure recovery was much more rapid in the presence of MB; also recorded: beneficial effects of MB may be seen; also recorded: effectiveness of MB in increasing the blood pressure
[3]
  respiratory problems at high dosage: can lead to respiratory problems in humans
